Laboratory results published in patent US4598075A, “Cephalosporin compounds” (Tanabe Seiyaku Co., Ltd., priority 1982, dated 1986).
≈ marks a conversion by molar mass, not a printed value. Read-outs that look alike come from different tables or passages of the source.

Experiments:
[1] = tested on: Staphylococcus aureus 252R; assay: MIC by standard agar plate dilution method; format: cell-based
Description: (§1) The minimum inhibitory concentration (MIC, μg/ml) of a test compound was determined by means of a standard agar plate dilution method (based on the standard method of Japan Society of Chemotherapy). Media used in these experiments were Mueller-Hinton agar (MHA; Nissui).

[2] = tested on: Citrobacter freundii 916; assay: Protective effects on bacterial infections in mice; format: in vivo; details: 168 h
Description: (§2) Ten male mice weighing 20±1 g were used for each dose level. Mice were challenged via the intraperitoneal route with sufficient bacteria to kill all non-treated mice within 24 hours. All bacteria were suspended in 6 % mucin. A test compound were administered intramuscularly one hour after the infection. Survival ratios were determined 7 days after the infection. The median effective doses (ED50, mg/kg) of the test compound were estimated by the probito analysis.

[3] = tested on: Escherichia coli KC-14; assay: Protective effects on bacterial infections in mice; format: in vivo; details: KC14, im, 168 h, intramuscular one hour after intraperitoneal infection, survival at 7 days
Description: as §2

[4] = tested on: Enterobacter aerogenes 816; assay: Protective effects on bacterial infections in mice; format: in vivo; details: 168 h
Description: as §2

[5] = tested on: Serratia marcescens 7006; assay: Protective effects on bacterial infections in mice; format: in vivo; details: 168 h
Description: as §2

[6] = tested on: Staphylococcus aureus Smith; assay: Protective effects on bacterial infections in mice; format: in vivo; details: im, 168 h
Description: as §2

[7] = tested on: Citrobacter freundii 916; assay: MIC by standard agar plate dilution method; format: cell-based
Description: as §1
(§3) The results are shown in the following Table 2 together with the M. I. C. (μg/ml) of the test compound which was estimated in the same manner as described in Experiment I.

[8] = tested on: Escherichia coli KC-14; assay: MIC by standard agar plate dilution method; format: cell-based; details: KC14, Table 2, read-out: M.I.C. (in parentheses)
Description: as §1, §3

[9] = tested on: Enterobacter aerogenes 816; assay: MIC by standard agar plate dilution method; format: cell-based
Description: as §1, §3

[10] = tested on: Serratia marcescens 7006; assay: MIC by standard agar plate dilution method; format: cell-based
Description: as §1, §3

[11] = tested on: Staphylococcus aureus Smith; assay: MIC by standard agar plate dilution method; format: cell-based; details: read-out: M.I.C. (in parentheses)
Description: as §1, §3

[12] = tested on: Streptococcus faecalis CN-478; assay: MIC by standard agar plate dilution method; format: cell-based; details: Enterococcus faecalis
Source text: The cephalosporin compound (I) of the present invention and pharmaceutically acceptable salts thereof show potent antimicrobial activity against a wide variety of microorganisms including those belonging to the genera Streptococcus (e.g., St. faecalis, St. pneumoniae), Staphylococcus (e.g., S. aureus, S. epidermidis) and Pseudomonas (e.g., Ps. aeruginosa, Ps. putida, Ps. stutzeri), and are particularly characterized by their potent antimicrobial activity against both gram-positive and gram-negative bacteria. […] The antimicrobial activity of 7β{(Z)-2-(2-aminothiazol-4-yl)-2-[(2-pyrrolidon-3-yl)oxyimino]-acetamido}-3-[(1-methyl-1H-tetrazol-5-yl)thio-methyl]-3-cephem-4-carboxylic acid against Staphylococcus aureus 252R is also more than 16 times stronger than those of Cefmenoxime and Ceftazidime. Moreover, the compound (I) and a salt thereof show potent antimicrobial activity against bacteria belonging to the genera Bacillus (e.g., B. subtilis), Escherichia (e.g., E. coli), Klebsiella (e.g., K. pneumoniae), Enterobacter (e.g., E. aerogenes, E. cloacae) and Serratia (e.g., S. marcescens).
as §1

[13] = tested on: Bacillus subtilis ATCC 6633; assay: MIC by standard agar plate dilution method; format: cell-based; details: ATCC6633, Table 1, Mueller-Hinton agar
Description: as §1

[14] = tested on: Pseudomonas putida ATCC 12633; assay: MIC by standard agar plate dilution method; format: cell-based; details: ATCC12633, Table 1, Mueller-Hinton agar
Description: as §1

[15] = tested on: Pseudomonas aeruginosa 4096; assay: MIC by standard agar plate dilution method; format: cell-based; details: Table 1, Mueller-Hinton agar
Description: as §1

[16] = tested on: Staphylococcus aureus Terajima; assay: MIC by standard agar plate dilution method; format: cell-based; details: Table 1, Mueller-Hinton agar
Description: as §1

[17] = tested on: Enterobacter cloacae TU-680; assay: MIC by standard agar plate dilution method; format: cell-based; details: TU680, Table 1, Mueller-Hinton agar
Description: as §1

[18] = tested on: Klebsiella pneumoniae 5038; assay: MIC by standard agar plate dilution method; format: cell-based; details: Table 1, Mueller-Hinton agar
Description: as §1

[19] = Subcutaneous administration to SD-male rats for 14 consecutive days; format: in vivo; details: dose of 1000 mg for 14 consecutive days
Description: For example, no rats die even after 7β-{(Z)-2-(2-aminothiazol-4-yl)-2-[(2-pyrrolidon-3-yl)oxyimino]acetamido}-3-(1-pyridiniomethyl)-3-cephem-4-carboxylate (l-isomer) is administered subcutaneously to SD-male rats at a dose of 1000 mg for 14 consecutive days.

[20] = CN478, agar dilution method, cultured for 20 hours at 37° C., Streptococcus faecalis CN 478, read-out: minimum inhibitory concentration (M.I.C.)
[21] = im, Citrobacter freundii 916, intramuscular one hour after intraperitoneal infection, survival at 7 days, read-out: ED50
[22] = Klebsiella aerogenes, im, Enterobacter aerogenes 816, intramuscular one hour after intraperitoneal infection, survival at 7 days, read-out: ED50
[23] = im, Serratia marcescens 7006, intramuscular one hour after intraperitoneal infection, survival at 7 days, read-out: ED50
[24] = Staphylococcus aureus Smith, intramuscular one hour after intraperitoneal infection, survival at 7 days, read-out: ED50
[25] = Table 2, Citrobacter freundii 916, read-out: M.I.C. (in parentheses)
[26] = Klebsiella aerogenes, Table 2, Enterobacter aerogenes 816, read-out: M.I.C. (in parentheses)
[27] = Table 1, Mueller-Hinton agar, Serratia marcescens 7006, read-out: M.I.C.
[28] = Table 2, Serratia marcescens 7006, read-out: M.I.C. (in parentheses)
[29] = Table 2, Staphylococcus aureus Smith
[30] = CN478, Table 1, Mueller-Hinton agar, Streptococcus faecalis CN-478, read-out: M.I.C.
[31] = Table 1, Mueller-Hinton agar, Staphylococcus aureus 252R, read-out: M.I.C.

MIC [12, 20]	SMILES	ED50 [3]	MIC [8]	MIC [13]	MIC [14]	MIC [15]	MIC [16]	MIC [17]	MIC [18]	ED50 [2, 21]	ED50 [4, 22]	ED50 [5, 23]	ED50 [6, 24]	MIC [7, 25]	MIC [9, 26]	MIC [10, 27]	MIC [10, 28]	MIC [11, 29]	MIC [12, 30]	MIC [1, 31]	further results
–	Cn1nnnc1SCC1=C(C(=O)O)N2C(=O)[C@@H](NC(=O)/C(=N\OC3CCNC3=O)c3csc(N)n3)[C@H]2SC1 (stereo partly drawn) [7β{(Z)-2-(2-aminothiazol-4-yl)-2-[(2-pyrrolidon-3-yl)oxyimino]-acetamido}-3-[(1-methyl-1H-tetrazol-5-yl)thio-methyl]-3-cephem-4-carboxylic acid]	–	–	–	–	–	–	–	–	–	–	–	–	–	–	–	–	–	–	–	antimicrobial activity stronger than those of Cefmenoxime and Ceftazidime ([1]; Staphylococcus aureus 252R, relative to Cefmenoxime and Ceftazidime): more than 16 times
–	CC(C)(O/N=C(\C(=O)N[C@@H]1C(=O)N2C(C(=O)[O-])=C(C[n+]3ccccc3)CS[C@H]12)c1csc(N)n1)C(=O)O [Ceftazidime, 7β-[(Z)-2-(2-aminothiazol-4-yl)-2-(2-carboxyprop-2-yloxyimino)acetamido]-3-(1-pyridiniomethyl)-3-cephem-4-carboxylate]	0.08 mg/kg	0.05 µg/mL (≈ 0.0915 µM)	3.13 µg/mL (≈ 5.73 µM)	12.5 µg/mL (≈ 22.9 µM)	0.78 µg/mL (≈ 1.43 µM)	12.5 µg/mL (≈ 22.9 µM)	0.2 µg/mL (≈ 0.366 µM)	0.1 µg/mL (≈ 0.183 µM)	–	–	–	–	–	–	–	–	–	–	–	ED50 ([2]; Citrobacter freundii, 916, im): 0.15 mg/kg; ED50 ([4]; Klebsiella aerogenes, 816, im): 26.4 mg/kg; ED50 ([5]; Serratia marcescens, 7006, im): 0.54 mg/kg; ED50 ([6]; Staphylococcus aureus): 7.85 mg/kg; MIC ([7]; Citrobacter freundii, 916, read-out: M.I.C. (in parentheses)): 0.39 µg/mL (≈ 0.714 µM); MIC ([9]; Klebsiella aerogenes, 816, read-out: M.I.C. (in parentheses)): 6.25 µg/mL (≈ 11.4 µM); MIC ([10]; Serratia marcescens, 7006): 0.2 µg/mL (≈ 0.366 µM); MIC ([10]; Serratia marcescens, 7006, read-out: M.I.C. (in parentheses)): 0.2 µg/mL (≈ 0.366 µM); MIC ([11]; Staphylococcus aureus): 12.5 µg/mL (≈ 22.9 µM); MIC ([12]; CN478): > 100 µg/mL; MIC ([12]; CN478, 20 h, read-out: minimum inhibitory concentration (M.I.C.)): > 100 µg/mL; MIC ([1]; Staphylococcus aureus, 252R): > 100 µg/mL
25 µg/mL (≈ 42 µM)	CN1CCC(O/N=C(\C(=O)N[C@@H]2C(=O)N3C(C(=O)O)=C(CSc4nnnn4C)CS[C@H]23)c2csc(N)n2)C1=O (stereo partly drawn) [7β-{(Z)-2-(2-aminothiazol-4-yl)-2-[(1-methyl-2-pyrrolidon-3-yl)oxyiminoacetamido}-3-[(1-methyl-1H-tetrazol-5-yl)thiomethyl]-3-cephem-4-carboxylic acid]	–	–	–	–	–	–	–	–	–	–	–	–	–	–	–	–	–	–	–	–
> 100 µg/mL	CO/N=C(\C(=O)N[C@@H]1C(=O)N2C(C(=O)O)=C(CSc3nnnn3C)CS[C@H]12)c1csc(N)n1 [Cefmenoxime, 7β-[(Z)-2-(2-aminothiazol-4-yl)-2-(methoxyimino)acetamido]-3-[(1-methyl-1H-tetrazol-5-yl)thiomethyl]-3-cephem-4-carboxylic acid]	0.16 mg/kg	0.025 µg/mL (≈ 0.0489 µM)	1.56 µg/mL (≈ 3.05 µM)	100 µg/mL (≈ 195 µM)	6.25 µg/mL (≈ 12.2 µM)	1.56 µg/mL (≈ 3.05 µM)	0.1 µg/mL (≈ 0.195 µM)	0.1 µg/mL (≈ 0.195 µM)	0.19 mg/kg	23.9 mg/kg	0.88 mg/kg	5.32 mg/kg	0.05 µg/mL (≈ 0.0977 µM)	1.56 µg/mL (≈ 3.05 µM)	0.2 µg/mL (≈ 0.391 µM)	0.2 µg/mL (≈ 0.391 µM)	1.56 µg/mL (≈ 3.05 µM)	> 100 µg/mL	> 100 µg/mL	–

SMILES	MIC [12, 20]	ED50 [3]	MIC [8]	MIC [13]	MIC [14]	MIC [15]	MIC [16]	MIC [17]	MIC [18]	ED50 [2, 21]	ED50 [4, 22]	ED50 [5, 23]	ED50 [6, 24]	MIC [7, 25]	MIC [9, 26]	MIC [10, 27]	MIC [10, 28]	MIC [11, 29]	MIC [12, 30]	MIC [1, 31]	further results
Nc1nc(/C(=N/O[C@H]2CCNC2=O)C(=O)N[C@@H]2C(=O)N3C(C(=O)[O-])=C(C[n+]4ccccc4)CS[C@H]23)cs1 [Example 6, 7β-{(Z)-2-(2-aminothiazol-4-yl)-2-[(2-pyrrolidon-3-yl)oxyimino]acetamido}-3-(1-pyridiniomethyl)-3-cephem-4-carboxylate (l-isomer)]	12.5 µg/mL (≈ 23 µM)	0.05 mg/kg	0.05 µg/mL (≈ 0.092 µM)	0.2 µg/mL (≈ 0.368 µM)	1.56 µg/mL (≈ 2.87 µM)	0.39 µg/mL (≈ 0.717 µM)	0.78 µg/mL (≈ 1.43 µM)	≤ 0.05 µg/mL	0.05 µg/mL (≈ 0.092 µM)	0.06 mg/kg	1.37 mg/kg	0.14 mg/kg	1.71 mg/kg	0.1 µg/mL (≈ 0.184 µM)	0.39 µg/mL (≈ 0.717 µM)	≤ 0.05 µg/mL	0.05 µg/mL (≈ 0.092 µM)	1.56 µg/mL (≈ 2.87 µM)	12.5 µg/mL (≈ 23 µM)	25 µg/mL (≈ 46 µM)	deaths of rats [19]: no rats die
